Counter-ions that a name gives are not always drawn.
Biological target: T1, recombinant guanylate cyclase reporter cell line (Rattus norvegicus, UniProt P19686+P20595)
T1 construct: expressed in transfected cells
T1 sequence (P19686 1-690): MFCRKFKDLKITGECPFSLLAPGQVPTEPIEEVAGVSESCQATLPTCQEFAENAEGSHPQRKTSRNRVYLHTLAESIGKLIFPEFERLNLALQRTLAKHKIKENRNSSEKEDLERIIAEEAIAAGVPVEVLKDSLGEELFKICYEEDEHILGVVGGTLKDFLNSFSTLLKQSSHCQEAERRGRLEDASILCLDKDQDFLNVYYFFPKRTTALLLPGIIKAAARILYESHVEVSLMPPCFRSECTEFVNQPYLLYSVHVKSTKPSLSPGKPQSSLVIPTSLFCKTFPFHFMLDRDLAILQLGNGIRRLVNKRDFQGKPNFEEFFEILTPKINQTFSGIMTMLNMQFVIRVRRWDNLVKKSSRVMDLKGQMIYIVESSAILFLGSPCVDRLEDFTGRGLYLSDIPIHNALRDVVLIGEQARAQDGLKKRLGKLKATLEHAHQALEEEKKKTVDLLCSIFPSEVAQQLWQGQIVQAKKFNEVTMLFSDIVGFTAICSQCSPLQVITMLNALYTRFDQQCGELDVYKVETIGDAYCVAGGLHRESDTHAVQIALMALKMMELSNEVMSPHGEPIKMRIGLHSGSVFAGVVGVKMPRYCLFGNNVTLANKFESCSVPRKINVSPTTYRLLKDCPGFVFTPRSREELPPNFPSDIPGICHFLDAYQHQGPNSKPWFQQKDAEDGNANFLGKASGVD
T1 sequence (P20595 1-619): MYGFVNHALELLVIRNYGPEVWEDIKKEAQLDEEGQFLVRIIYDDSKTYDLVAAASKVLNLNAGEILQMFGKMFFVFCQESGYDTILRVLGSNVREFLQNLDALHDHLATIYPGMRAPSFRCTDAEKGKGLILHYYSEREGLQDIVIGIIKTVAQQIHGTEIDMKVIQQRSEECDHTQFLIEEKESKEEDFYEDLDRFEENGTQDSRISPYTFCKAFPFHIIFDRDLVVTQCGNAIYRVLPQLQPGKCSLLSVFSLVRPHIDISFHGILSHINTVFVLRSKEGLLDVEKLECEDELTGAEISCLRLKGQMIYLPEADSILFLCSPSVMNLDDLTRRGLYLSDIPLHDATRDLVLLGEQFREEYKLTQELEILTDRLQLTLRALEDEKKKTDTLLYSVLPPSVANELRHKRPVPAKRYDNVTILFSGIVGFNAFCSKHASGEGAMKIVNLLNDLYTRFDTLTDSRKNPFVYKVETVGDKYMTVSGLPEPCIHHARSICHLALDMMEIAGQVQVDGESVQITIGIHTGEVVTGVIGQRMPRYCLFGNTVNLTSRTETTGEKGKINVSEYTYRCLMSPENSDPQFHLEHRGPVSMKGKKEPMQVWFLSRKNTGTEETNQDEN
Test: Effect on a recombinant guanylate cyclase reporter cell line (B-2)
Assay type: cell-based
Conditions: in some cases mean values for individual determinations
Method: B-2. Effect on a Recombinant Guanylate Cyclase Reporter Cell Line
The cellular effect of the inventive compounds is determined using a recombinant guanylate cyclase reporter cell line, as described in F. Wunder et al., Anal. Biochem. 339, 104-112 (2005).
Representative MEC values (MEC=minimum effective concentration) for the inventive compounds are shown in the table below (in some cases as mean values for individual determinations): […]

SMILES | MEC (minimum effective concentration)
Cc1cc(OCc2c(F)cccc2F)n2nc(C)c(C(=O)N[C@@H](CO)c3ccc(C)o3)c2c1 [Example 177, 7-[(2,6-Difluorobenzyl)oxy]-N-[(1S)-2-hydroxy-1-(5-methy1-2-furyl)ethyl]-2,5-dimethylpyrazolo[1,5-a]pyridine-3-carboxamide] | 1.0 µM
Cc1cc(OCc2c(F)cccc2F)n2nc(C)c(C(=O)NC3CCC(C)(C)c4ccccc43)c2c1 (racemic) [Example 145, rac-7-[(2,6-Difluorobenzyl)oxy]-N-(4,4-dimethyl-1,2,3,4-tetrahydronaphthalen-1-yl)-2,5-dimethylpyrazolo[1,5-a]pyridine-3-carboxamide] | 1.0 µM
CCC(C)(N)CNC(=O)c1c(C)nn2c(OCc3c(F)cccc3F)cc(C)cc12 (single isomer, unassigned) [Example 2, ent-N-(2-Amino-2-methylbutyl)-7-[(2,6-difluorobenzyl)oxy]-2,5-dimethylpyrazolo[1,5-a]pyridine-3-carboxamide formate] | 0.3 µM
Cc1cc(OCc2c(F)cccc2F)n2nc(C)c(C(=O)N[C@@H]3CCNC3=O)c2c1 [Example 98, 7-[(2,6-Difluorobenzyl)oxy]-2,5-dimethyl-N-[(3R)-2-oxopyrrolidin-3-yl]pyrazolo[1,5-a]pyridine-3-carboxamide] | 3.0 µM
Cc1cc(OCc2c(F)cccc2F)n2nc(C)c(C(=O)NC3CC(C)(C)C3N)c2c1 (centres unmarked) [Example 101, N-(2-Amino-3,3-dimethylcyclobutyl)-7-[(2,6-difluorobenzyl)oxy]-2,5-dimethylpyrazolo[1,5-a]pyridine-3-carboxamide] | 3.0 µM
Cc1cc(OCc2c(F)cccc2F)n2nc(C)c(C(=O)NC[C@H]3CC[C@H](C(=O)O)CC3)c2c1 [Example 36, trans-4-{[({7-[(2,6-Difluorobenzyl)oxy]-2,5-dimethylpyrazolo[1,5-a]pyridin-3-yl}carbonyl)amino]methyl}cyclohexanecarboxylic Acid] | 3.0 µM
Cc1cc(OCc2c(F)cccc2F)n2nc(C)c(C(=O)NCC(N)CC(F)(F)F)c2c1 (racemic) [Example 107, rac-N-(2-Amino-4,4,4-trifluorobutyl)-7-[(2,6-difluorobenzyl)oxy]-2,5-dimethylpyrazolo[1,5-a]pyridine-3-carboxamide] | 3.0 µM
Cc1cc(OCc2c(F)cccc2F)n2nc(C)c(C(=O)NCC(C)(N)CCF)c2c1 (single isomer, unassigned) [Example 49, ent-N-(2-Amino-4-fluoro-2-methylbutyl)-7-[(2,6-difluorobenzyl)oxy]-2,5-dimethylpyrazolo[1,5-a]pyridine-3-carboxamide] | 0.3 µM
Cc1cc(OCc2c(F)cccc2F)n2nc(C)c(C(=O)NC3CCOc4c(Cl)cccc43)c2c1 (racemic) [Example 147, rac-N-(8-Chloro-3,4-dihydro-2H-chromen-4-yl)-7-[(2,6-difluorobenzyl)oxy]-2,5-dimethylpyrazolo[1,5-a]pyridine-3-carboxamide] | 0.3 µM
Cc1cc(OCc2c(F)cccc2F)n2nc(C)c(C(=O)NNC(=O)CN3CCCC3=O)c2c1 [Example 175, 7-[(2,6-Difluorobenzyl)oxy]-2,5-dimethyl-N′-[(2-oxopyrrolidin-1-yl)acetyl]pyrazolo[1,5-a]pyridine-3-carbohydrazide trifluoroacetate] | 10 µM
Cc1cc(OCc2c(F)ccc(F)c2F)n2nc(C)c(C(=O)NCc3ccccc3-n3ccnc3)c2c1 [Example 32, N-[2-(1H-Imidazol-1-yl)benzyl]-2,5-dimethyl-7-[(2,3,6-trifluorobenzyl)oxy]pyrazolo[1,5-a]pyridine-3-carboxamide] | 0.3 µM
CCC(C)(N)CNC(=O)c1c(C2CC2)nn2c(OCc3c(F)cccc3F)cc(C)cc12 (single isomer, unassigned) [Example 54, ent-N-(2-Amino-2-methylbutyl)-2-cyclopropyl-7-[(2,6-difluorobenzyl)oxy]-5-methylpyrazolo[1,5-a]pyridine-3-carboxamide] | 0.3 µM
CCCC(C)(N)CNC(=O)c1c(C)nn2c(OCc3c(F)cccc3F)cccc12 (racemic) [Example 163, rac-N-(2-Amino-2-methylpentyl)-7-[(2,6-difluorobenzyl)oxy]-2-methylpyrazolo[1,5-a]pyridine-3-carboxamide] | 3.0 µM
Cc1cc(OCc2c(F)ccc(F)c2F)n2nc(C)c(C(=O)NC(C#N)c3ccc(Cl)cc3)c2c1 (centres unmarked) [Example 34, N-[(4-Chlorophenyl)(cyano)methyl]-2,5-dimethyl-7-[(2,3,6-trifluorobenzyl)oxy]pyrazolo[1,5-a]pyridine-3-carboxamide] | 1.0 µM
Cc1cc(OCc2c(F)cccc2F)n2nc(C)c(C(=O)NC3CC(=O)N(C)c4ccccc43)c2c1 (racemic) [Example 77, rac-7-[(2,6-Difluorobenzyl)oxy]-2,5-dimethyl-N-(1-methyl-2-oxo-1,2,3,4-tetrahydroquinolin-4-yl)pyrazolo[1,5-a]pyridine-3-carboxamide trifluoroacetate] | 0.3 µM
Cc1cc(OCc2c(F)ccc(F)c2F)n2nc(C)c(C(=O)NCc3ncc[nH]3)c2c1 [Example 18, N-(1H-Imidazol-2-ylmethyl)-2,5-dimethyl-7-[(2,3,6-trifluorobenzyl)oxy]pyrazolo[1,5-a]pyridine-3-carboxamide] | 3.0 µM

Other lines, results leading:

MEC (minimum effective concentration) | SMILES
0.03 µM | Cc1cc(OCc2c(F)cccc2F)n2nc(C3CC3)c(C(=O)NCC(C)(N)CCC(F)(F)F)c2c1 (single isomer, unassigned) [Example 58, ent-N-(2-Amino-5,5,5-trifluoro-2-methylpentyl)-2-cyclopropyl-7-[(2,6-difluorobenzyl)oxy]-5-methylpyrazolo[1,5-a]pyridine-3-carboxamide]
1.0 µM | Cc1cc(OCc2c(F)cccc2F)n2nc(C)c(C(=O)NCC(C)(N)CCOCc3ccccc3)c2c1 (racemic) [Example 78, rac-N-[2-Amino-4-(benzyloxy)-2-methylbutyl]-7-[(2,6-difluorobenzyl)oxy]-2,5-dimethylpyrazolo[1,5-a]pyridine-3-carboxamide]
3.0 µM | COC(=O)[C@@H](N)CCCCNC(=O)c1c(C)nn2c(OCc3c(F)cccc3F)cc(C)cc12 [Example 131, Methyl N^6-({7-[(2,6-difluorobenzyl)oxy]-2,5-dimethylpyrazolo[1,5-a]pyridin-3-yl}carbonyl)-L-lysinate]
1.0 µM | COC(=O)[C@H]1CC[C@H](CNC(=O)c2c(C)nn3c(OCc4c(F)cccc4F)cc(C)cc23)CC1 [Example 35, Methyl trans-4-{[({7-[(2,6-difluorobenzyl)oxy]-2,5-dimethylpyrazolo[1,5-a]pyridin-3-yl}carbonyl)amino]methyl}cyclohexanecarboxylate]
3.0 µM | C=CCONC(=O)c1c(C)nn2c(OCc3c(F)cccc3F)cc(C)cc12 [Example 65, N-(Allyloxy)-7-[(2,6-difluorobenzyl)oxy]-2,5-dimethylpyrazolo[1,5-a]pyridine-3-carboxamide trifluoroacetate]
0.3 µM | Cc1cc(OCc2c(F)cccc2F)n2nc(C)c(C(=O)NCC(C)(N)CF)c2c1 (single isomer, unassigned) [Example 41, ent-N-(2-Amino-3-fluoro-2-methylpropyl)-7-[(2,6-difluorobenzyl)oxy]-2,5-dimethylpyrazolo[1,5-a]pyridine-3-carboxamide]
10 µM | Cc1cc(OCc2c(F)cccc2F)n2nc(C)c(C(=O)N[C@@H](CO)c3nnc([C@@H](N)C(C)C)o3)c2c1 [Example 179, N-[(1S)-1-{5-[(1S)-1-Amino-2-methylpropyl]-1,3,4-oxadiazol-2-yl}-2-hydroxyethyl]-7-[(2,6-difluorobenzyl)oxy]-2,5-dimethylpyrazolo[1,5-a]pyridine-3-carboxamide]
